In article PMC6767220, “Active Anti-Inflammatory and Hypolipidemic Derivatives of Lorazepam” (Molecules, 2019):
“Also recorded” adds a separate entry of the source. Where two headings read alike, the source gives them in different places.

Columns and labels:
[1] = system: carrageenan-induced rat paw oedema; assay: Carrageenan-induced rat paw oedema; type: in vivo; conditions: ip, i.p. 0.15 mmol/kg, 3.5 h post administration, vs controls, read-out: % Oedema Reduction
Method: An aqueous solution of carrageenan was prepared (1% w/v) and 0.1 mL of this was injected i.d. into the right hind paw of female rats; the left paw served as control. The tested compounds (suspended in water with a few drops of Tween 80) were given intra peritoneally (i.p.) (0.15 mmol/kg) 5 min prior to the carrageenan injection. After 3.5 h the hind paws were weighed separately. The produced oedema was estimated as paw weight increase.

[2] = system: rat hepatic microsomal membrane lipid peroxidation; assay: Inhibition of rat hepatic microsomal membrane lipid peroxidation induced by ferrous ascorbate; type: biochemical; conditions: for Antioxidant activity (lipid peroxidation and DPPH experiments): lipid peroxidation inhibition and DPPH interaction, result in words; for IC50: rat hepatic microsomal fraction, ferrous ascorbate, 45 min incubation
Method: The incubation mixture contained heat-inactivated rat hepatic microsomal fraction, ascorbic acid (0.2 mM) in Tris–HCl/KCl buffer (pH 7.4) and the test compounds dissolved in dimethylsulphoxide. The reaction was initiated by FeSO4 (10 µM) and the mixture was incubated at 37 °C. Aliquots were taken at various time intervals for 45 min. Lipid peroxidation was assessed spectrophotometrically (535 against 600 nm) by the determination of 2-thiobarbituric acid (TBA) reactive material.

soybean lipoxygenase-1 = target: T1, soybean lipoxygenase-1 (Glycine max, UniProt P08170); assay: Inhibition of soybean lipoxygenase; type: biochemical
T1 sequence (P08170 1-839): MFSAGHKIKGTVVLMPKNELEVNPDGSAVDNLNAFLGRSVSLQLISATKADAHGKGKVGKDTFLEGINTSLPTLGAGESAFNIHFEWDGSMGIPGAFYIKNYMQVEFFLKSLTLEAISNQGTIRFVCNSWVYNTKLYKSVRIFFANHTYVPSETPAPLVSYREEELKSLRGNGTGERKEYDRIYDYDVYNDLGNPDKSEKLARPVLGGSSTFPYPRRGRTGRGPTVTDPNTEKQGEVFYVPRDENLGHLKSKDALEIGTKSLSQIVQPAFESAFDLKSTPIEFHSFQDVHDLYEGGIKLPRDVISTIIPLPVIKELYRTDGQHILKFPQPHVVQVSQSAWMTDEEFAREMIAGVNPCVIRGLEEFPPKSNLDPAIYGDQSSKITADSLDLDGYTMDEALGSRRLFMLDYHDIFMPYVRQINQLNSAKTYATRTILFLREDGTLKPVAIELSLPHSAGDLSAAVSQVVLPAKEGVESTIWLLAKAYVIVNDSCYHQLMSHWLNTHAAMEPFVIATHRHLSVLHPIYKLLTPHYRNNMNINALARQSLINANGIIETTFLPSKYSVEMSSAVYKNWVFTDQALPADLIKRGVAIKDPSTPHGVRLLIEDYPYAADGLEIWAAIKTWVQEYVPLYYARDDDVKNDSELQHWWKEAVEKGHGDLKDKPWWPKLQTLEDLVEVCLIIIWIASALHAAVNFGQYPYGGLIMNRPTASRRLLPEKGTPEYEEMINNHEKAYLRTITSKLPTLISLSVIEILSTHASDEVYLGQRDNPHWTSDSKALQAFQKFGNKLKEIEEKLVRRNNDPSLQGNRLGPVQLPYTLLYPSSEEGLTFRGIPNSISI
Method: The reaction mixture contained the test compounds dissolved in ethanol and soybean lipoxygenase (250 U/mL) in Tris buffer (pH 9). The reaction was initiated by the addition of sodium linoleate (0.1 mM) and monitored for 7 min at 28 °C, by recording the absorbance of a conjugated diene structure at 234 nm. For the estimation of the type of inhibition, the above experiments were repeated, using sodium linoleate at 1 mM, which is higher than the saturating substrate concentration.

inflammation [3] = conditions: cited from earlier work
inflammation [4] = system: inflammation; set-up: method as in PMID 25792646; conditions: cited from earlier work
[5] = system: Triton WR1339 (tyloxapol) induced hyperlipidemia; assay: Triton WR1339 (tyloxapol) induced hyperlipidemia: plasma TC, TG, LDL-C; type: in vivo; conditions: ip, rat plasma, 24 h, tyloxapol 200 mg/kg i.p.; for inhibition in vivo at 50 µmol/kg: dose i.p. 50 µmol/kg; for inhibition in vivo at 150 µmol/kg: dose i.p. 150 µmol/kg
[6] = Interaction with the stable radical DPPH; conditions: DPPH 200 µΜ, 30 min incubation
Method: Compounds (in absolute ethanol, final concentration 50–200 µM) were added to an equal volume of an ethanolic solution of DPPH (final concentration 200 µM) at room temperature (22 ± 2 °C). Absorbance (517 nm) was recorded after 30 min [22].

[7] = sodium linoleate 0.1 mM, 7 min incubation, read-out: Lipoxygenase IC50
[8] = read-out: % Reduction LDL-C (LDL cholesterol)
[9] = read-out: % Reduction TC (total cholesterol)
[10] = read-out: % Reduction TG (triglycerides)

SMILES	inhibition in vivo at 150 µmol/kg [1] [%]	melting point [°C]	IC50 (soybean lipoxygenase-1; [7]) [µM]	inhibition in vivo at 150 µmol/kg [5, 8] [%]	inhibition in vivo at 150 µmol/kg [5, 9] [%]	inhibition in vivo at 150 µmol/kg [5, 10] [%]	Percent Interaction with DPPH ([6]; compound 50 µΜ) [%]	Percent Interaction with DPPH ([6]; compound 100 µΜ) [%]	Percent Interaction with DPPH ([6]; compound 200 µΜ) [%]	IC50 [2] [µM]	further results
O=C(Cc1c[nH]c2ccccc12)OC1N=C(c2ccccc2Cl)c2cc(Cl)ccc2NC1=O (stereo not shown) [Compound 9, 7-Chloro-5-(2-chlorophenyl)-2-oxo-2,3-dihydro-1H-benzo[e][1,4]diazepin-3-yl 2-(1H-indol-3-yl)acetate]	43	257 to 258									Antioxidant activity (lipid peroxidation and DPPH experiments) [2]: do not express any antioxidant activity; IC50 (soybean lipoxygenase-1): 255 µM
Cc1cc(C(C)(C)C)c(O)c(C(C)(C)C)c1 [BHT, 2,6-di-tert-butyl-4-methylphenol]			192								Anti-inflammatory action in vivo (inflammation [3]): lacks such action; Anti-inflammatory action in vitro (inflammation [4]): lacks such action
O=C(CCCCC1CCSS1)OC1N=C(c2ccccc2Cl)c2cc(Cl)ccc2NC1=O (stereo not shown) [Compound 6, 7-Chloro-5-(2-chlorophenyl)-2-oxo-2,3-dihydro-1H-benzo[e][1,4]diazepin-3-yl 5-(1,2-dithiolan-3-yl)pentanoate]	39	184 to 189		60	82	41					inhibition in vivo at 50 µmol/kg [5, 8]: 47%; inhibition in vivo at 50 µmol/kg [5, 9]: 48%; inhibition in vivo at 50 µmol/kg [5, 10]: 39%; Antioxidant activity (lipid peroxidation and DPPH experiments) [2]: do not express any antioxidant activity; also recorded: inactive; IC50 (soybean lipoxygenase-1): 60 µM
Cc1c(C)c2c(c(C)c1O)CCC(C)(C(=O)OC1N=C(c3ccccc3Cl)c3cc(Cl)ccc3NC1=O)O2 (stereo not shown) [Compound 7, 7-Chloro-5-(2-chlorophenyl)-2-oxo-2,3-dihydro-1H-benzo[e][1,4]diazepin-3-yl 6-hydroxy-2,5,7,8-tetramethylchroman-2-carboxylate]	56	138 to 144		69	72	64	46	82	91	2.5	Lipoxygenase IC50 (soybean lipoxygenase-1; sodium linoleate 0.1 mM, 7 min incubation): -
Cc1c(C)c2c(c(C)c1O)CCC(C)(C(=O)O)O2 (stereo not shown) [Trolox, 6-hydroxy-2,5,7,8-tetramethylchroman-2-carboxylic acid, reference compound]			> 300				38	90	92	25	
CC(C)(C)c1cc(C=CC(=O)OC2N=C(c3ccccc3Cl)c3cc(Cl)ccc3NC2=O)cc(C(C)(C)C)c1O (stereo not shown) [Compound 8, (E)-7-Chloro-5-(2-chlorophenyl)-2-oxo-2,3-dihydro-1H-benzo[e][1,4]diazepin-3-yl 3-(3,5-di-tert-butyl-4-hydroxyphenyl)acrylate]	37	274	44	63	81	66	30	49	90	> 100	inhibition in vivo at 50 µmol/kg [5, 8]: 44%; inhibition in vivo at 50 µmol/kg [5, 9]: 59%; inhibition in vivo at 50 µmol/kg [5, 10]: 52%
O=C(O)CCCC[C@@H]1CCSS1 [lipoic acid, (R)-5-(1,2-dithiolan-3-yl)pentanoic acid]											Anti-inflammatory action (inflammation [3]; at similar doses): weak anti-inflammatory agent
